# Results reported in patent US11098053B2, “Enhanced osteogenic activity of daidzein analogs on human mesenchymal stem cells” (THE ADMINISTRATORS OF THE TULANE EDUCATIONAL FUND, priority 2013, dated 2021).
# Columns and labels:
# [1] = tested on: Human bone marrow derived mesenchymal stem cells (MSCs); test: Osteogenic differentiation of MSCs (Alizarin Red calcium deposition); settings: 1 μM, 14 days
# BMSCs [2] = tested on: BMSCs
# BMSCs [3] = test: Osteogenic differentiation of BMSCs (alizarin red); settings: 14 days
# ASCs = test: Osteogenic differentiation of ASCs (alizarin red); settings: 14 days
# [4] = 1 μM + 100 nM fulvestrant, FIG. 12
# [5] = n=6 donors, estrogen 10 nM, others 1 μM
smiles,measurement,setting,value
"O=c1c(-c2ccc(O)cc2)coc2cc(OC3CCCC3)ccc12 [2g, 7-Cyclopentyloxy-3-(4-hydroxyphenyl)-4H-chromen-4-one]","osteogenic activity (structure-activity summary, in words)",[1]; donor MSCs,modest osteogenic activity
same,"osteogenesis averaged over all three donors, relative to vehicle treated MSCs",[1]; three donors,2.0±0.64
same,cytotoxicity at higher dosages,BMSCs [2],nor lead to cytotoxicity
same,"osteogenic potential of BMSCs relative to vehicle, with fulvestrant",BMSCs [3]; [4],0.8 fold
same,"osteogenic potential of BMSCs relative to vehicle, inhibitor study, without fulvestrant","BMSCs [3]; 1 μM, FIG. 12",1.9 fold
same,"osteogenic differentiation (calcium deposition), fold relative to vehicle-treated BMSCs",BMSCs [3]; [5],1.6 fold
same,"osteogenic potential of ASCs relative to vehicle, with fulvestrant",ASCs; [4],0.9 fold
same,"osteogenic potential of ASCs relative to vehicle, inhibitor study, without fulvestrant","ASCs; 1 μM, FIG. 12",2.0 fold
same,"osteogenic differentiation (calcium deposition), fold relative to vehicle-treated ASCs",ASCs; [5],2.0 fold
